Test results reported in US4925979A, “Flavone carboxylic acid derivatives” (Shionogi & Co., Ltd., priority 1986, dated 1990).
Where two headings read alike, the source gives them in different places.

How the values were obtained:
[1] = as seen from the therapeutic index; cited from earlier work
[2] = tested on: human acute promyelocytic leukemia cells HL 60; assay: Differentiation of HL-60 cells: NBT reduction (counting formazan-containing cells), ED50; assay type: cell-based; details: for activity (in words): HL-60 differentiation, Table 1; for EC50: Homo sapiens, read-out: ED50 (effective dose which causes differentiation of 50% of the cultured cells)
Experimental: The test of the activities of the compounds of this invention has been conducted by measuring the concentration required for inducing the differentiation of human acute promyelocytic leukemia cells HL 60, according to the methods described in detail hereinafter.
(§1) The HL-60 cell are cultured in plastic flasks in RPMI 1640 medium supplemented with 5% heat inactivated fetal calf serum and antibiotics (penicillin G and streptomycin). The cells (3×10^4 /ml) are cultured with a compound of the present invention for 4 days. The cells are fixed and stained with Wright-Giemsa to examine the morphological changes of the nuclei.
The biochemical activity of cells treated with the compound is measured as follows:
The cells after 5 days incubation are centrifuged and diluted with RPMI 1640 medium, supplemented with 5% fetal calf serum to provide a definite number of the cells. To the diluted cell suspension are then added 200 ng/ml of 12-o-tetradodecanoylphorbol-13 -acetate (TPA) and the resulting culture medium is then incubated for 20 minutes at 37° C. in the presence of 0.1% of NBT. Thus, the mature differentiated cells containing blue-black formazan is counted by microscopy, so that the ratio of the cells having the ability to reduce NBT, to total cells, can be calculated.
(§2) The biological test was performed according to the method previously described, using the leukemia cells HL 60. The morphological changes were observed under a light microscope. Biochemical activity reducing nitro-blue tetrazolium is assayed by counting the number of cells which contain formazan. The specific activity, ED50 (the concentration which causes the differentiation of 50% of the total cells, represented by M), was calculated and shown in the Table. As a positive control for comparison, all trans retinoic acid was used.

[3] = tested on: chemically-induced papillomas of the skin of mice; details: minute quantities; cited from earlier work
[4] = tested on: chemically-induced skin carcinomas in mice; details: cited from earlier work
[5] = tested on: human acute promyelocytic leukemia cells (HL-60); assay: Differentiation of HL-60 cells: morphological changes of nuclei (Wright-Giemsa); assay type: cell-based; details: HL-60, 4 days culture
Experimental: as §1, §2

Q: Which “activity relative to Retinoic acid” value [1] does the source give for `CCOC(=O)c1ccc(/C=C(\C)c2ccc3c(c2)C(C)(C)CCC3(C)C)cc1` [Artinoid] here?
A: Its value is “ten times as strong”.

Q: With `CC1(C)CCC(C)(C)c2cc3c(=O)cc(-c4ccc(C(=O)O)cc4)oc3cc21` [No. 5, 4-(6,7,8,9-tetrahydro-6,6,9,9,-tetramethyl-4H-4-oxo-naphtho[2,3-b]pyran-2-yl) benzoic acid] as the compound, how does the “activity (in words)” value [2] read?
A: Its value is “one of the strongest compounds”.

Q: For `CC1(C)CCC(C)(C)c2cc(C(=O)C=C(O)c3ccc(C(=O)O)cc3)c(O)cc21` [No. 8, 4-[1-hydroxy-3-(3-hydroxy-5,6,7,8-tetrahydro-5,5,8,8-tetra-methyl-2-naphthalenyl)-3-oxo-1-propenyl] benzoic acid], which “activity (in words)” value [2] is on record?
A: The value was “most active compound”.

Q: Which regression of papillomas [3] does the source give for `CCOC(=O)c1ccc(/C=C(\C)c2ccc3c(c2)C(C)(C)CCC3(C)C)cc1` [Ro 13 6298] here?
A: Its regression of papillomas is “regression”.

Q: And the “therapeutic influence on skin carcinomas” value [4]?
A: Its value is “therapeutic influence”.

Q: For `O=C(O)c1ccc(-c2cc(=O)c3ccccc3o2)cc1` [compound 1], which “ED50 (effective dose which causes differentiation of 50% of the cultured cells)” value ([2]; HL-60 cells) is on record?
A: The value was “inactive (10^-5)”.

Q: With `CC(C)(C)c1ccc2c(=O)cc(-c3ccc(C(=O)O)cc3)oc2c1` [compound 2] as the compound, how does the EC50 ([2]; 96 h, HL-60 cells) read?
A: The EC50 was 210 nM.

Q: For `COC(=O)c1ccc(-c2cc(=O)c3cc4c(cc3o2)C(C)(C)CCC4(C)C)cc1` [compound 4], which EC50 ([2]; 96 h, HL-60 cells) is on record?
A: The EC50 was 0.51 nM.

Q: For `CC1(C)CCC(C)(C)c2cc3c(=O)cc(-c4ccc(C(=O)O)cc4)oc3cc21` [compound 5], which EC50 ([2]; 96 h, HL-60 cells) is on record?
A: Its EC50 is 0.063 nM.

Q: For `CC1(C)CCC(C)(C)c2cc3c(=O)c(O)c(-c4ccc(C(=O)O)cc4)oc3cc21` [compound 6], which EC50 ([2]; 96 h, HL-60 cells) is on record?
A: Its EC50 is 1.2 nM.

Q: With `CC1(C)CCC(C)(C)c2cc(C(=O)C=Cc3ccc(C(=O)O)cc3)c(O)cc21` [compound 7] as the compound, how does the EC50 ([2]; 96 h, HL-60 cells) read?
A: The EC50 was 0.1 nM.

Q: For `CC1(C)CCC(C)(C)c2cc(C(=O)C=C(O)c3ccc(C(=O)O)cc3)c(O)cc21` [compound 8], which EC50 ([2]; 96 h, HL-60 cells) is on record?
A: The EC50 was 0.091 nM.

Q: For `CC(C)(C)c1ccc(C(=O)C=C(O)c2ccc(C(=O)O)cc2)c(O)c1` [compound 9], which EC50 ([2]; 96 h, HL-60 cells) is on record?
A: The EC50 was 930 nM.

Q: For `CC1=C(/C=C/C(C)=C/C=C/C(C)=C/C(=O)O)C(C)(C)CCC1` [retinoic acid, all trans retinoic acid, reference compound], which EC50 ([2]; HL-60, 96 h) is on record?
A: The EC50 was 4.1 nM.

Q: What about the “differentiation to mature granulocytes” value [5] of the same compound?
A: Its value is “differentiated to mature granulocytes”.
